Each structure is given as a SMILES string.

Common to all, as to assay type: cell-based, human
For assay [1], the system named is engineered skeletal muscle tissue (ESM). Description: Isometric force measurements of engineered skeletal muscle (ESM) matured with medium additives. The conditions noted are these: for contraction speed (+dFOC/dt): 100 Hz stimulation; for contraction speed (+dFOC/dt) / relaxation speed (−dFOC/dt): vs without added T3; for relaxation speed (−dFOC/dt): after 100 Hz stimulation; for increase of the force of contraction: 100 Hz, vs no creatine. An excerpt: To further increase the function of engineered skeletal muscle, e.g. the contraction force can be increased by adding specific molecules. In this example, we specifically tested the enhancement of the contraction force, as well as contraction and relaxation times, in response to the addition of creatine and an increased concentration of thyroid hormone T3 (triiodo-L-thyronine (T3); from 3 to 100 nmol/L in the maturation medium in step iv). Here, the procedure according to Examples 1 and 2 was performed first. In contrast to Example 2, the maturation medium was supplemented with creatine or an increased concentration of T3 either between days 28 and 56 or between days 56 and 84 of the method.
The maturation medium was changed every other day and cultured under mechanical stretching for up to 9 weeks. The maturation medium comprised DMEM, with low glucose, GlutaMAX™ Supplement, pyruvate (Thermo Fisher Scientific), 1% N-2 Supplement (Thermo Fisher Scientific), 2% B-27 Supplement (Thermo Fisher Scientific), and optional antibiotics (e.g., 1% Pen/Strep-Thermo Fisher Scientific). 0.1 μM T3 (Sigma-Aldrich) or 1 mM creatine monohydrate (Sigma-Aldrich) were added to the maturation medium for a four-week period when indicated (e.g., day 28-56 or day 56-84).
The contractile function of engineered skeletal muscle tissue was measured under isometric conditions in an organ bath filled with gassed (5% CO2/95% 02) Tyrode solution (containing in mmol/L): 120 NaCl, 1 MgCl2, 0.2 CaCl2), 5.4 KCl, 22.6 NaHCO3, […], 5.6 glucose, and 0.56 ascorbate) at 37° C. To verify the force-length relationship—while ESMs were electrically stimulated at 1 Hz with 5 ms rectangular pulses of 200 mA—muscle length was increased by mechanical stretching in intervals of 125 μm, until the maximum contraction force was observed. At the length of maximum force generation, tetanic contraction force was assessed under defined stimulation frequencies (4-second stimulation at 10, 20, 40, 60, 80, and 100 Hz).

Assay [2] deals with MYH2 (fast myosin heavy chain). As to the kind of experiment: Western blot of myosin heavy chain protein in ESM. The following applies: four-week addition of 0.1 μM T3; day 84; three independent experiments. On the procedure: (§1) To investigate the molecular cause of this improved muscle function, the expression of different proteins was analyzed by Western blots. MYH2 is the heavy chain of the fast myosin (MYH2; fast myosin heavy chain); MYH7 is the heavy chain of the slow myosin (MYH7; slow myosin heavy chain); MYH3 is the heavy chain of the embryonic myosin (MYH3; embryonic myosin heavy chain). Protein expression was analyzed at day 84. […] Based on three independent experiments, the expression is increased at least 5-fold. The expression of MYH7 remained unchanged by an addition of 0.1 μM T3. […] These protein expression data support the functional data from FIGS. 10B, as the reduced response time of the engineered skeletal muscle can be explained by an increased expression of the fast myosin (MYH2) isoform by T3.
(§2) For protein isolation, engineered skeletal muscle was placed in an Eppendorf tube and snap frozen in liquid nitrogen. To the engineered skeletal muscle, 150 μl of ice-cold protein lysate buffer (2.38 g HEPES, 10.20 g NaCl, 100 ml glycerol, 102 mg MgCl2, 93 mg EDTA, 19 mg EGTA, 5 ml NP-40 in a total volume of 500 ml ddH2O) containing 1/10 phosphatase inhibitor (Roche) and 1/7 protease inhibitor (Roche) were added. A 7-mm stainless steel ball (Qiagen) was added to the Eppendorf tube, and the sample was homogenized using the TissueLyser II (Qiagen) for 30 seconds at 30 Hz and 4° C., followed by incubation on ice for 2 hours and then centrifugation at 12,000 rpm and 4° C. for 30 minutes. The supernatant was collected as a protein sample, and the protein concentration was measured by Bradford protein assay. […] Protein expression in ESM was analyzed by Western blot using the following primary antibodies: monoclonal embryonic myosin heavy chain 3 (1:500, F1.652, DSHB), slow myosin type heavy chain 7 (1:500, A4.951, DSHB), and fast myosin type heavy chain 2 (1:100, A4.74, DSHB). […] Protein quantification from the Western blot was performed using ImageJ.

In assay [3] the test system is MYH3 (embryonic myosin heavy chain). As to the kind of experiment: Western blot of myosin heavy chain protein in ESM. The following applies: addition of 0.1 μM T3; day 84; on average. On the procedure:
as §1, §2

The subject of assay [4] is MYH7 (slow myosin heavy chain). Description: Western blot of myosin heavy chain protein in ESM. The following applies: addition of 0.1 μM T3; day 84. On the procedure:
as §1, §2

[5] abbreviates: 0.1 μM T3 between days 56 and 84.

As for `N[C@@H](Cc1cc(I)c(Oc2ccc(O)c(I)c2)c(I)c1)C(=O)O` [T3, triiodo-L-thyronine], in assay [1] (setting [5]), the “contraction speed (+dFOC/dt)” value is recorded as “decreased” and the “relaxation speed (−dFOC/dt)” value was “decreased”. In assay [1] (0.1 μM T3 day 28 to day 56), the “contraction speed (+dFOC/dt)” value was “decreased significantly” and the “relaxation speed (−dFOC/dt)” value is “decreased significantly”. Further, the “protein expression of MYH2, increase” value in assay [2] was “at least 5 fold”. The MYH3 expression result in assay [3] is reported as “reduced by approximately half”. Moreover, the “expression of MYH7” value in assay [4] is recorded as “unchanged”.

As to `CN(CC(=O)O)C(=N)N` [creatine], the “increase of the force of contraction” value is reported as 39% in assay [1] (1 mM creatine day 28 to day 56) and 30% in assay [1] (1 mM creatine day 56 to day 84). Besides, the “force of contraction (FOC)” value in assay [1] (maturation medium with 1 mM creatine day 28 to day 56, tetanic contraction at 100 Hz stimulation, without creatine 1.8 mN) is recorded as 2.5 mN. For the same molecule, the “force of contraction (twitch tension)” value in assay [1] (maturation medium with 1 mM creatine day 56 to day 84, tetanic contraction at 100 Hz stimulation, without creatine 4.0 mN) came to 5.2 mN.

The values are drawn from patent US20240076620A1, “PRODUCTION OF SKELETAL MUSCLE CELLS AND SKELETAL MUSCLE TISSUE FROM PLURIPOTENT STEM CELLS” (Georg-August-Universität Göttingen Stiftung Öffentlichen …, priority 2019, published 2024).
